{
  "source": "patent US7276352B2",
  "about": "“Induction of β cell differentiation in human cells by stimulation of the GLP-1 receptor” (The Regents of the University of California, priority 2000, dated 2007)",
  "molecules": {"B1": {"name": "betacellulin (protein, UniProt P35070 32-111, looked up)", "Betacellulin": "DGNSTRSPETNGLLCGDPEENCAATTTQSKRKGHFSRCPKQYKHYCIKGRCRFVVAEQTPSCVCDEGYIGARCERVDLFY", "notes": "factor reported to be able to induce endocrine differentiation in cell lines and primary cells"}},
  "key": {"[1]": {"system": "βlox5 cells", "experiment": "RT-PCR analysis of pancreatic hormone gene expression in βlox5 cells", "type": "cell-based, human", "conditions": "for hormone expression in βlox5 cells: βlox5 cells expressing PDX-1, data not shown", "from_the_text": "FIG. 2: RT-PCR analysis of pancreatic hormone gene expression in βlox5. The conditions tested were βlox5 cells grown in monolayer culture, βlox5 cells infected with a retroviral vector expressing PDX-1, βlox5 cells grown as three-dimensional aggregates, and βlox5 cells treated with exendin-4. FIG. 2(A) insulin; FIG. 2(B) quantitative RT-PCR analysis of insulin gene expression; FIG. 2(C) other pancreatic hormones. Aggregation of cells into three-dimensional clusters and the retroviral vector expressing PDX-1 have been described previously (Itkin-Ansari et al., submitted). Exendin-4 (Sigma) was used at a concentration of 10 nM. RT-PCR for insulin, somatostatin, glucagon, and IAPP have been described previously (Itkin-Ansari et al., submitted). Quantitative RT-PCR was done by interpolation from a standard curve constructed using a plasmid containing the human insulin cDNA.\nPDX-1 also acted synergistically with cell-cell contact to further increase the level of […] expression about 1,000-fold above the cells not expressing PDX-1, to a level similar to that found in normal human islets. To determine whether βlox5 could be induced to express pancreatic hormones, recombinant PDX-1 was expressed in βlox5 using a retroviral vector. […] Therefore, other factors were examined for their ability to induce hormone expression in βlox5 cells expressing PDX-1. Activin and betacellulin have been reported to be able to induce endocrine differentiation in cell lines and primary cells (Mashima et al., Diabetes 48:304-9 (1999), Huotari et al., Endocrinology 139, 1494-9 (1998), Mashima et al., J Clin Invest 97:1647-54 (1996), Yamaoka et al, J Clin Invest 102:294-301 (1998)). However, they had no effect on hormone expression in βlox5 cells (data not shown).\nGLP-1, a small peptide cleaved from the proglucagon molecule, is an insulin secretogogue Drucker et al., Diabetes 47:159-69 (1998)).\nBy itself, exendin-4 had no effect on hormone expression in βlox5 (FIG. 2A, lane 8). […] The nature of the interaction between exendin-4, cell-cell contact, and PDX-1 is evident from the fact that no hormone mRNA was detectable with any one or two of the three inducing factors (FIG. 2A). […] Islet amyloid polypeptide (IAPP) mRNA, a hormone that is co-secreted with insulin, was also expressed in induced βlox5 cells (FIG. 2C, lane 2). However, the other major pancreatic hormones, glucagon, somatostatin, and pancreatic polypeptide (PP), were not induced (FIG. 2C)."}, "[2]": {"system": "βlox5 cells", "experiment": "Analysis of transcription factors expressed in βlox5 cells (RT-PCR, Western blot)", "type": "cell-based, human", "experimental": "FIG. 3: Analysis of transcription factors expressed in βlox5 cells. FIG. 3(A) electrophoretic mobility shift assay (EMSA) of PDX-1. EM5A for PDX-1 was performed using a probe derived from the human insulin promoter A5 element. FIGS. 3(B&C) RT-PCR analysis of BETA2 and Pax6. FIG. 3(D) Western blot analysis of CREB. FIG. 3(E) EMSA of RIPE3b.\nThe expression of transcription factors important in β-cell development was examined to determine whether they had been induced by PDX-1, cell-cell contact, and exendin-4. […] GLP-1 has been reported to increase cAMP levels and this has been thought to be a major mechanism by which GLP-1 acts as an insulin secretogogue (Serre et al., Endocrinology 139:4448-54 (1998)). […] RIPE3b, a factor that plays a critical role in insulin gene expression but that has not yet been cloned, is expressed in βlox5 irrespective of PDX-1, cell-cell contact, or exendin-4 (FIG. 3E)."}, "[3]": {"conditions": "induced βlox5 cells (PDX-1, cell-cell contact, exendin-4 10 nM)"}},
  "data": [
    {"molecule": "Activin", "values": [
      {"measurement": "hormone expression in βlox5 cells", "setting": "[1]", "value": "no effect"}
    ]},
    {"molecule": "exendin-4", "values": [
      {"measurement": "BETA2 expression", "setting": "[2]; PDX-1, cell-cell contact and exendin-4, RT-PCR", "value": "induced only by the combination of all three inducing factors"},
      {"measurement": "CREB expression", "setting": "[2]; exendin-4 alone, independently of cell-cell contact and PDX-1, Western blot", "value": "induced"},
      {"measurement": "hormone expression in βlox5", "setting": "[1]; exendin-4 by itself, 10 nM, four days, no PDX-1, no aggregation", "value": "no effect"},
      {"measurement": "Islet amyloid polypeptide (IAPP) mRNA", "setting": "[1]; [3]", "value": "expressed"},
      {"measurement": "glucagon, somatostatin and pancreatic polypeptide (PP) expression", "setting": "[1]; [3]", "value": "not induced"},
      {"measurement": "insulin mRNA", "setting": "[1]; βlox5 cells expressing PDX-1, suspension culture as three-dimensional aggregates, 10 nM exendin-4 for four days", "value": "substantial amount of insulin mRNA was detectable"}
    ]},
    {"molecule": "B1", "values": [
      {"measurement": "hormone expression in βlox5 cells", "setting": "[1]", "value": "no effect"}
    ]}
  ]
}
